Usually fraction unbound stands for free concentration divided by total concentration. A higher fraction unbound goes with much free substance.

Assay type in all cases: in vitro ADME
Data set [1] can be described thus: In vitro equilibrium dialysis (RED) protein binding, rat plasma. To be noted: male, Sprague-Dawley, pH 7.4. How it is done:
(§1) Cilnidipine was tested by PsychoGenics using standard methodology in 96-well RED (Rapid Equilibrium Dialysis) plates from Thermo Fisher Scientific. Male Sprague-Dawley plasma and brain were obtained from BioIVT to provide the required protein matrix. Plasma was used undiluted, and brain homogenate was diluted 3 to 1 with PBS, pH 7.4. The protein matrix was spiked with the test compound dissolved in DMSO to achieve a 10 μM solution. Three chambers were used to allow for triplicate measures with a final DMSO concentration of <1% in each. The dialysate compartments of the 96-well dialysis chamber was loaded with PBS, pH 7.4 and the sample side was loaded with equal volume of the spiked protein matrix. The dialysis plate was then sealed and incubated at 37° C. for 4 h. After the incubation, samples were taken from each compartment. The buffer side was diluted with the appropriate matrix (plasma or brain homogenate) and the protein matrix side diluted with phosphate buffer. Resultant samples were then crashed in acetonitrile, centrifuged and the supernatant mixed with an aqueous solution providing samples for UPLC-MS/MS analysis. […] This control sample served as the basis for the determination of recovery. […] Samples were analyzed by UPLC-MS/MS using […] (MRM). The UPLC conditions consisted of a binary LC pump with autosampler, an InertSustain column (C18 column, 2.1×50 mm), utilizing gradient elution. The peak areas of the test compound in the buffer and test samples were used to calculate percent binding and recovery according to the following formulas: […]
(§2) The recovery determination serves as an indicator of reliability of the calculated protein binding value.
(§3) The characterization of protein binding is defined using the following ranges:
(§4) • Low 0 to 50% • Moderate 50 to 90% • High 90 to 99% • Very High>99%
(In general: In equilibrium dialysis free small molecules cross a membrane that holds back macromolecules.)

The nature of data set [2]: In vitro equilibrium dialysis (RED) protein binding, rat brain homogenate. To be noted: male, Sprague-Dawley, rat, pH 7.4. The procedure: as §1, §2, §3, §4
A further data set concerns rat plasma proteins. The experiment in a line: In vitro equilibrium dialysis (RED) protein binding, rat plasma. The note with it: male, Sprague-Dawley, plasma, 4 h, 10 μM, pH 7.4. The procedure:
as §1, §2, §3, §4

For data set [3], the system named is rat brain homogenate proteins. The experiment in a line: In vitro equilibrium dialysis (RED) protein binding, rat brain homogenate. The note with it: male, Sprague-Dawley, rat, brain homogenate, 4 h, 10 μM, pH 7.4. The procedure: as §1, §2, §3, §4

Take `C=C[C@H]1C[N@@]2CC[C@H]1C[C@@H]2[C@@H](O)c1ccnc2ccc(OC)cc12` [quinidine]: the recovery at 4 h, 10 μM in data set [1] was determined as 93.7 ± 3.89%; in data set [2], 125 ± 1.54%.

In the case of `CC(=O)CC(c1ccccc1)c1c(O)c2ccccc2oc1=O` (centres unmarked) [warfarin], the recovery at 4 h, 10 μM turned out to be 112.7 ± 0.76% in data set [1] and 132 ± 0.57% in data set [2]. For the same compound, the fraction unbound at 4 h, 10 μM in data set [1] (plasma) was 0.008; in data set [2] (brain homogenate), 0.827. In addition, the figures for the “Unbound (%)” value (with rat plasma proteins; in data set [3]) were 0.8 ± 0.02% and 82.7 ± 4.98%, respectively.

The values above are taken from patent US20240358693A1, “METHODS OF TREATING PAIN” (Aisa Pharma, Inc., priority 2023, published 2024).
